Measurements from patent US5607934A, “Piperazine derivatives and salts thereof” (Otsuka Pharmaceutical Co., Ltd., priority 1993, dated 1997).
In brackets after ≈: the same amount, converted by molar mass.

Experiments:
[1] = system: superoxide radicals (O2^-) released from the peritoneal macrophage cells of guinea pig; test: Inhibitory effect against superoxide radicals (O2^-) released from the peritoneal macrophage cells of guinea pig by stimulation (FMLP); assay type: cell-based; conditions: Cavia porcellus, Peritoneal macrophage cell; guinea pig peritoneal macrophages 2×10^6 cells/ml; FMLP 10^-7 M; cytochrome C reduction, OD550
Procedure: Inhibitory effect against superoxide radicals (O2^-) released from the peritoneal macrophage cells of guinea pig by stimulation:
Mineral oil (15 ml)was intraperitoneally administered to a guinea pig, then 96 hours after the administration, the peritoneal macrophage cells were sampled.
Superoxide radicals (O2^-) were determined by means of reduction of cytochrome C method according to the procedure described in an article written by T. Matsumoto, K. Takeshige and S. Minakami: Biochemical and Biophysical Research Communications, Vol. 88, No. 3, pp. 974-979, (1979).
Into 1 ml of 80 μM-cytochrome C solution, the peritoneal macrophage cells were added to make the final concentration of 2×10^6 cells/ml, then each one of the test compounds of the present invention was added thereto to make the test group sample. On the other hand, water was added in place of the test compound of the present invention to make the control group sample. Each of the test group samples and the control group samples were subjected to pre-incubation at 37° C. for 1 minute.
As to the stimulating agent for releasing superoxide radicals (O2^-), FMLP (formylmethionyl leucyl phenylalanine)was added to each one of the test sample solutions and the control group samples to make the final concentration of FMLP to 10^-7 M, then the sample solutions were subjected to additional reaction by incubation for 1 minute.
Difference between the optical absorbances measured at 550 nm (OD550) of both test group samples and control group samples were determined, the 50% inhibitory concentration (IC50) was obtained by calculating as the ratio of OD550 of the test group sample to that of the control group sample.

[2] = system: rat mesangial cell proliferation; test: Inhibitory effects on rat mesangial cell proliferation (interleukin-1β induced 3H-thymidine incorporation); assay type: cell-based, SD-strain rat; conditions: 1 ng/ml interleukin-1β, read-out: Rate of inhibition; for inhibition at 3 µg/mL: concentration 3 μg/ml; for inhibition at 10 µg/mL: concentration 10 μg/ml
Procedure: Inhibitory effects on rat mesangial cell proliferation
The kidney of SD-strain rat was aseptically taken out by excision. and the renal cortex was cut out therefrom. The renal glomeruli were isolated by use of sieve. The glomeruli were cultivated in RPMI1640 culture medium [which contains 10% of FBS (fetal bovine serum)] for 4 weeks. Thus obtained cells were used as mesangial cells.
An experiment of incorporation of thymidine by interleukin-1β was conducted by procedures according to the method of Ganz [Michael B. Ganz; Mary C. Perfetto and Walter F. Boron: American Journal of Physiology, Vol. 259, F269-F278, (1990)]. Thus, 2×10^4 cells/ml of mesangial cells were scattered on a 48-well plate (0.5 ml/well), and the cells were cultivated in RPMI culture medium (which contains 10% of FBS) for 3 days. Then, the culture medium was changed to another RPMI culture medium in which the concentration of FBS was decreased from 10% to 0.5% and cultivated for 3 days. Next, the RPMI culture medium (containing 0.5% of FBS) was changed to other RPMI culture medium to which the test compound and 1 ng/ml of interleukin-1β were added. The cultivation was conducted for 24 hours, then 1 μCi/well of 3H-thymidine was added to the culture medium, and the cultivation was continued for additional 24 hours.
The amount of ^3 H-thymidine being incorporated into the mesangial cells was measured by use of a scintillation counter, and the rate of inhibition (%) in comparison of the test group vs. control group was calculated by the following formula:
Rate of inhibition (%)=[(C-D)/(C-E)]×100
C: the incorporated amount of ^3 H-thymidine in control group;
D: the incorporated amount of ^3 H-thymidine in the case of that test compound was added;
E: the incorporated amount of ^3 H-thymidine in the case of that interleukin-1β was not added.

[3] = system: passive Heymann nephritis of rat; test: Inhibitory effect against increase of urinary proteins in the passive Heymann nephritis of rat; assay type: in vivo, SD-strain male rats; conditions: oral, once a day for 7 days, urinary protein, 12th day
Procedure: Inhibitory effect against increase of urinary proteins in the passive Heymann nephritis of rat
SD-strain male rats (7 week old, body weight: 200-230 g)were used as test animals.
An antiserum which will induce passive Heymann nephritis of rat was prepared by procedures according to the method of T. S. Edington, et al. [T. S. Edington, R. J. Glassock and F. J. Dixon: Autologous immune complex nephritis induced with renal tublar antigen. I. Identification and isolation of the pathogenetic antigen. Journal of Experimental Medicine Vol. 127, pp. 555-572 (1968).] as follows:
At the first, an antigen (FX1A fraction) of the renaltublar brush border was sampled from the SD rat. Next, the antigen was admixed with Freund' complete adjuvant, then a New Zealand White rabbit was sensitized therewith. The sensitization procedures were conducted 3 times in every 2 weeks, and 2 weeks after the final sensitization, the blood sample was obtained from the rabbit. […]
Heymann nephritis of the rats were induced by injecting the above-mentionedantiserum to the tail vein of the test rats. […] The urine samples of the rat were taken in time sequentially from the 10th day after the injection, and the amount of urinary protein in the samples were determined. The rate of inhibitory effect (%) against the production of urinary protein performed by the test compound was calculated by the formula as follows: […]

[4] = system: releasing of hydrogen peroxide (H2 O2) from the neutrocyte of abdominal cavity of rat; test: Inhibitory effect against the releasing of hydrogen peroxide (H2O2) from the neutrocyte of abdominal cavity of rat; assay type: cell-based, SD-strain rat; conditions: rat neutrocytes 10^6 cells/ml; FMLP 2×10^-6 M; 37° C., 1 hour; OD610
Procedure: Inhibitory effect against the releasing of hydrogen peroxide (H2 O2) from the neutrocyte of abdominal cavity of rat
1%-Casein solution was administered to the abdominal cavity of a SD-strain rat, then 16 hours after the administration, the neutrocytes were obtained by washing the abdominal cavity. Thus obtained neutrocytes were washed with Hank's solution.
In to a reaction mixture consisting of the following ingredients:
______________________________________
HRP (Horse Radish peroxide)
HEPES [N-(2-Hydroxyethyl)pipera-
zine N'-2-ethanesulfonic acid]
Rat neutrocytes 10^6 cells/ml
the test compound was added, then the whole mixture was incubated at 37° C. for 1 hour, and the mixture was subjected to a centrifugal separation at 2,000 rpm for minutes. After the centrifugal separation, 1 ml of the supernatant was sampled and 10 μl of 1N-NaOH aqueous solution was added thereto. Then, the optical absorbance at 610 nm (OD610) of the supernatant was determined by means of using a spectro-photometer.
The IC50 (50% inhibitory concentration) of the test compound was obtained by calculating as the ratio of OD610 of the test group sample to that of the control group sample.

IC50 [4] [µg/mL] | Compound | IC50 [1] [µg/mL] | inhibition at 3 µg/mL [2] [%] | inhibition at 10 µg/mL [2] [%] | Rate of inhibitory effect ([3]; 20 mg/kg/day) [%] | Rate of inhibitory effect ([3]; 5 mg/kg/day) [%]
< 5 | CC(C)C[C@@H]1C(=O)N[C@H](Cc2cc(C(C)(C)C)c(O)c(C(C)(C)C)c2)C(=O)N1O (racemic) [Example 13, (3RS,6RS)-3-(3,5-di-tert-butyl-4-hydroxybenzyl)-1-hydroxy-6-isobutylpiperazine-2,5-dione] | 1.3 (≈ 3.21 µM) | 77.9 ± 8.3 | 122 ± 6.1 | 57.8 ± 6.1 | –
3 (≈ 8.69 µM) | CCOC(=O)C[C@@H]1NC(=O)[C@@H](Cc2c[nH]c3ccccc23)N(O)C1=O [Example 57] | – | 26.3 ± 5.8 | 56.7 ± 2.9 | – | 53.1 ± 15.1
